Source: patent US9987216B2, “Plant fat composition for cosmetic preparation” (priority 2016, dated 2018)

Columns and labels:
[1] = Journal of the American College of Toxicology Vol. 6, No. 3, 1987; cited from earlier work
[2] = DPPH radical scavenging (antioxidative effect); settings: concentration of 10%; 30 minutes in the dark, absorbance 540 nm
Method: DPPH (2,2-diphenyl-1-picryl-hydrazyl) is a purple-colored stable free radical substance that receives hydrogens from an antioxidant to undergo decolorization. Upon exposure to an antioxidant, the DPPH acts as a […] the antioxidant and becomes removed of free radicals, resulting in decolorization, which makes it possible to evaluate the radical-scavenging activity.
Vitamin E (acetate) was used as a control.
(a) Prepare a 0.2 mM DPPH reagent dissolved in n-hexane.
(b) Prepare test samples by concentration.
(c) Add 100 μl of the reagent and 100 μl of each sample in four wells of a 96-well test plate.
(d) Add 100 μl of the reagent and 100 μl of a solvent in four wells to remove the blank value.
(e) Kept in the dark for 30 minutes at the room temperature.
(f) Measure the absorbance at 540 nm with an ELISA reader (TECAN microplate reader).
Analysis Method (Calculation Method) DPPH radical scavenging ability (%)=[1−(absorbance of sample/absorbance of blank)]×100

[3] = system: skin on the inner side of the upper arm; experiment: Skin irritation in the test subjects of the TEWL test; format: in vivo; settings: all test subjects (n=6), 100 μl on the skin
Method: 100 μl of each product was applied to the skin on the inner side of the upper arm and kept absorbed into the skin for 5 minutes. The transepidermal water loss was then measured at predetermined intervals. In addition, all the test subjects (n=6) had no irritation to both the plant fat composition of the present invention and the plant-derived squalane.

For `CCCCCCCC/C=C\CCCCCCCC(=O)O` [oleic acid], which “safety in use for cosmetic formulations” value [1] is on record?
Its value is “safe”.

Which “safety in use for cosmetic formulations” value [1] does the source give for `CCCCCCCCCCCCCCCCCC(=O)O` [stearic acid] here?
Its value is “safe”.

Which “safety in use for cosmetic formulations” value [1] does the source give for `CCCCCCCCCCCCCCCC(=O)O` [palmitic acid] here?
Its value is “safe”.

Which “DPPH radical scavenging activity” value [2] does the source give for `CC(=O)Oc1c(C)c(C)c2c(c1C)CCC(C)(CCC[C@H](C)CCC[C@H](C)CCCC(C)C)O2` (stereo partly shown) [vitamin E, Vitamin E (acetate)] here?
Its value is 5%.

With `CCCCCCCCCCCCCC(=O)O` [myristic acid] as the compound, how does the “safety in use for cosmetic formulations” value [1] read?
The value was “safe”.

With `CC(C)CCCC(C)CCCC(C)CCCCC(C)CCCC(C)CCCC(C)C` (stereo not shown) [plant-derived squalane, squalane] as the compound, how does the skin irritation [3] read?
The skin irritation was “no irritation”.

With `CCCCCCCCCCCC(=O)O` [lauric acid] as the compound, how does the “safety in use for cosmetic formulations” value [1] read?
The value was “safe”.
